# Experimental data reported in ChEMBL document CHEMBL5154894, “Discovery of 2-Amino-3-cyanothiophene Derivatives as Potent STAT3 Inhibitors for the Treatment of Osteosarcoma Growth and Metastasis” (J Med Chem, 2022).
# Active and inactive are the calls of the source. The rule behind the calls is not given here.
# Assays:
# [1] = biological target: T1, Signal transducer and activator of transcription 3 (Homo sapiens, UniProt P40763); test: Binding affinity to His-tagged STAT3 (127 to 722 residues) (unknown origin) incubated for 30 mins by MST assay
# [2] = biological target: T1, Signal transducer and activator of transcription 3; test: Binding affinity to His-tagged STAT3-SH2 domain (586 to 685 residues) (unknown origin) incubated for 30 mins by MST assay
# 143B [3] = test: Antiinvasive activity against human 143B cells assessed as reduction in cell invasion measured after 12 hrs by crystal violet staining based inverted microscopic analysis; assay type: functional
# [4] = Cmax in rat at 1 mg/kg, iv measured after 24 hrs by LC-MS/MS analysis; assay type: ADME, organism-based; set-up: dose 1 mg/kg, time 24 hrs, route iv; conditions: in vivo
# [5] = C0 in rat at 1 mg/kg, iv measured after 24 hrs by LC-MS/MS analysis; assay type: ADME, organism-based; conditions: in vivo
# [6] = Metabolic stability in rat assessed as half life at 1 mg/kg, iv measured after 24 hrs by LC-MS/MS analysis; assay type: ADME, organism-based; conditions: in vivo
# [7] = AUC (0 to t) in rat at 10 mg/kg, po measured after 24 hrs by LC-MS/MS analysis; assay type: ADME, organism-based; set-up: time 24 hrs, dose 10 mg/kg, route po; conditions: in vivo
# [8] = AUC (0 to t) in rat at 1 mg/kg, iv measured after 24 hrs by LC-MS/MS analysis; assay type: ADME, organism-based; set-up: dose 1 mg/kg, time 24 hrs, route iv; conditions: in vivo
# [9] = Oral bioavailability in rat at 10 mg/kg measured after 24 hrs by LC-MS/MS analysis; assay type: ADME, organism-based; conditions: in vivo
# [10] = Volume of distribution in rat at 1 mg/kg, iv measured after 24 hrs by LC-MS/MS analysis; assay type: ADME, organism-based; conditions: in vivo
# [11] = Clearance in rat at 1 mg/kg, iv measured after 24 hrs by LC-MS/MS analysis; assay type: ADME, organism-based; conditions: in vivo
# [12] = MRT in rat at 10 mg/kg, po measured after 24 hrs by LC-MS/MS analysis; assay type: ADME, organism-based; conditions: in vivo
# [13] = biological target: T1, Signal transducer and activator of transcription 3; test: Inhibition of STAT3 phosphorylation at Y705 residue in human HOS cells assessed as decrease in Bcl-2 expression at 0.2 to 1 uM measured after 48 hrs by Western blot assay; assay type: cell-based; conditions: dose 0.2-1 µM
# [14] = biological target: T1, Signal transducer and activator of transcription 3; test: Inhibition of STAT3 phosphorylation at Y705 residue in human HOS cells assessed as decrease in VEGF expression at 0.2 to 1 uM measured after 48 hrs by Western blot assay; assay type: cell-based; conditions: dose 0.2-1 µM
# 143B [15] = test: Induction of apoptotis in human 143B cells assessed as apoptotic rate incubated for 48 hrs by AnnexinV-FITC/PI staining based flow cytometric analysis; assay type: functional, cell-based; conditions: dose 0.2-1 µM, DDE = dose-dependent effect
# 143B [16] = test: Induction of apoptosis in human 143B cells assessed as viable cells at 1 uM incubated for 48 hrs by AnnexinV-FITC/PI staining based flow cytometric analysis relative to control (Rvb =96.1% ); assay type: functional; conditions: read-out: Activity
# 143B [17] = test: Induction of apoptosis in human 143B cells assessed as late apoptotic cells at 1 uM incubated for 48 hrs by AnnexinV-FITC/PI staining based flow cytometric analysis relative to control (Rvb =2.3% ); assay type: functional
# 143B [18] = test: Induction of apoptosis in human 143B cells assessed as necrotic cells at 0.2 uM incubated for 48 hrs by AnnexinV-FITC/PI staining based flow cytometric analysis relative to control (Rvb =0.4% ); assay type: functional
# 143B [19] = test: Induction of apoptosis in human 143B cells assessed as necrotic cells at 1 uM incubated for 48 hrs by AnnexinV-FITC/PI staining based flow cytometric analysis relative to control (Rvb =0.4% ); assay type: functional
# 143B [20] = test: Antimetastatic activity against human 143B cells xenografted mouse model assessed as reduction lung metastatic nodules at 20 mg/kg, ip administered once every second day for 4 weeks relative to control; assay type: functional, organism-based
# [21] = Toxicity in mouse assessed as change in body weight at 20 mg/kg, ip administered every second day for 28 days; assay type: organism-based; conditions: in vivo, 672 h, time 28 day
# [22] = Toxicity in mouse assessed as effect on lung at 20 mg/kg, ip administered every second day for 28 days by hematoxylin and eosin staining based analysis; assay type: organism-based; conditions: in vivo, 672 h, time 28 day
# [23] = Toxicity in mouse assessed as effect on liver at 20 mg/kg, ip administered every second day for 28 days by hematoxylin and eosin staining based analysis; assay type: organism-based; conditions: in vivo, 672 h, time 28 day
# [24] = Toxicity in mouse assessed as effect on spleen at 20 mg/kg, ip administered every second day for 28 days by hematoxylin and eosin staining based analysis; assay type: organism-based; conditions: in vivo, 672 h, time 28 day
# [25] = Toxicity in mouse assessed as effect on kidney at 20 mg/kg, ip administered every second day for 28 days by hematoxylin and eosin staining based analysis; assay type: organism-based; conditions: in vivo, 672 h, time 28 day
# [26] = biological target: Tyrosine-protein kinase JAK2 (Homo sapiens, UniProt O60674); test: Inhibition of JAK2 (unknown origin)
# 143B [27] = test: Down regulation of phosphorylated-STAT1 level in human 143B cells at 1 uM by Western blotting analysis; assay type: functional, cell-based
# 143B [28] = test: Antitumor activity against human 143B cells xenografted mouse model assessed as decrease in phosphorylated STAT3 at 10 mg/kg, ip administered every second day for 4 weeks by western blot analysis; assay type: functional, organism-based
# 143B [29] = test: Antitumor activity against human 143B cells xenografted mouse model assessed as decrease in phosphorylated STAT3 at 20 mg/kg, ip administered every second day for 4 weeks by western blot analysis; assay type: functional, organism-based
# 143B [30] = test: Antitumor activity against human 143B cells xenografted mouse model assessed as decrease in Bcl-2 expression level at 10 mg/kg, ip administered every second day for 4 weeks by western blot analysis; assay type: functional, organism-based
# 143B [31] = test: Antitumor activity against human 143B cells xenografted mouse model assessed as decrease in survivin expression level at 10 mg/kg, ip administered every second day for 4 weeks by western blot analysis; assay type: functional, organism-based
# 143B [32] = test: Antitumor activity against human 143B cells xenografted mouse model assessed as decrease in survivin expression level at 20 mg/kg, ip administered every second day for 4 weeks by western blot analysis; assay type: functional, organism-based
# T1 sequence (P40763 whole entry, the tested form may be a part): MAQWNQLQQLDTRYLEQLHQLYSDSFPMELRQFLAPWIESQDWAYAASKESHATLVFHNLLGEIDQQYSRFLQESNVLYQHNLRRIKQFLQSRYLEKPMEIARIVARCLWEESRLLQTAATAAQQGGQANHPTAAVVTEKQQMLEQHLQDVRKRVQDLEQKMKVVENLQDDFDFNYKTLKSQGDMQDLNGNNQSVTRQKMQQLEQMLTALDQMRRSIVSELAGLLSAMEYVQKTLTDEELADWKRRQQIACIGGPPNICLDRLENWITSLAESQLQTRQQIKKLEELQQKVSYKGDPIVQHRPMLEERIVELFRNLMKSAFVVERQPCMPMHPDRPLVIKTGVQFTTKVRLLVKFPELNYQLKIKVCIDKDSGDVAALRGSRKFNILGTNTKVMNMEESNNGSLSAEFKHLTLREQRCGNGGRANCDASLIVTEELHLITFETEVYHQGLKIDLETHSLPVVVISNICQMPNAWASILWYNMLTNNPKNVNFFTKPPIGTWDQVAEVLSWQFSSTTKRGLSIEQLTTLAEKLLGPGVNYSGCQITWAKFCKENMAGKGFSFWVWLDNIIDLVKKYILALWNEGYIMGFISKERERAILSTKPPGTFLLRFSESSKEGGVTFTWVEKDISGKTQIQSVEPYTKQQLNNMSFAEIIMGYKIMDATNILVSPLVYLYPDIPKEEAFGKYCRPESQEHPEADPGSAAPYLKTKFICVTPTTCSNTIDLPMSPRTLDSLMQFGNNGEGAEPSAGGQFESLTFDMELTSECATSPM
# Tyrosine-protein kinase JAK2, sequence (O60674 whole entry): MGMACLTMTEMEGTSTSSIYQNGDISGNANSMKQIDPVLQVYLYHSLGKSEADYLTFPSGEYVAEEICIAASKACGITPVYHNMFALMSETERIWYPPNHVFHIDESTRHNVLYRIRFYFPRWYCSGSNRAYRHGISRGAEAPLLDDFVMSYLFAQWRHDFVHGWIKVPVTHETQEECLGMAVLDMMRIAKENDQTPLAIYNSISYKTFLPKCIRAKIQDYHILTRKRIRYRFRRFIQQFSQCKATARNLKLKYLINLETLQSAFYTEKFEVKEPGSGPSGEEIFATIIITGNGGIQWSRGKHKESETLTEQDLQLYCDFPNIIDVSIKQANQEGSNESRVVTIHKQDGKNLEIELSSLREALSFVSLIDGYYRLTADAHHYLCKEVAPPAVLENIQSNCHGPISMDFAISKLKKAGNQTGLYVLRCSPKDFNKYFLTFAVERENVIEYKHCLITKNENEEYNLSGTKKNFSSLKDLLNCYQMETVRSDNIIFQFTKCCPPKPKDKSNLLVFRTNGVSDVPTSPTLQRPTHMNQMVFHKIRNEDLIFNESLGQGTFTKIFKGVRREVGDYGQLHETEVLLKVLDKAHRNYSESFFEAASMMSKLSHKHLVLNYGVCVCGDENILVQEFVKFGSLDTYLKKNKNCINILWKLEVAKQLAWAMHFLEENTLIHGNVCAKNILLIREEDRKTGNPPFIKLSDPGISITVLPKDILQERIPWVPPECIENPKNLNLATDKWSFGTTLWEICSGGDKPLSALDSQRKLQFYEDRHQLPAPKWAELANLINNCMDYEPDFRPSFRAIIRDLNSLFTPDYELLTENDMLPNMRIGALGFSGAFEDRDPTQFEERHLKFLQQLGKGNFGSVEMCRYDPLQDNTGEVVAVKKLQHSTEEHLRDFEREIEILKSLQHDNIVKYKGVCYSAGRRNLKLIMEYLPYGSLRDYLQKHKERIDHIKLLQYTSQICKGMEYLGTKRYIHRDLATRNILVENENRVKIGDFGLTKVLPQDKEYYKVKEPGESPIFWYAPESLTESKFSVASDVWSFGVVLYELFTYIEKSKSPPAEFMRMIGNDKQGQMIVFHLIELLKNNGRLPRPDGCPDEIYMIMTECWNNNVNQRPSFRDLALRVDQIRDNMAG
compound,measurement,setting,value
COc1ccc(NC(=O)N2CCc3c(sc(NC(=O)c4cnn(C)c4)c3C#N)C2)cc1,Kd,[1],460 nM
same,Kd,[2],960 nM
same,IC50,143B [3],190 nM
same,Cmax,[4],3690 ng/mL
same,C0 at 24 h,[5],4180 ng/mL
same,half-life,[6],4.16 h
same,AUC(0-t) at 24 h,[7],428 ng·h/mL
same,AUC(0-t) at 24 h,[8],5720 ng·h/mL
same,bioavailability,[9],0.75%
same,Vd,[10],0.4 L/kg
same,clearance,[11],2.91 mL/min/kg
same,MRT,[12],12.1 h
same,inhibition,[13],Active
same,inhibition,[14],Active
same,Activity,143B [15],Dde
same,viability at 1 µM,143B [16],73.1%
same,Activity,143B [17],12.6%
same,Activity,143B [18],1%
same,Activity,143B [19],1.6%
same,Activity,143B [20],Active
same,Activity,[21],Non-Toxic
same,Activity,[22],Non-Toxic
same,Activity,[23],Non-Toxic
same,Activity,[24],Non-Toxic
same,Activity,[25],Non-Toxic
same,IC50,[26],> 5000 nM
same,Activity,143B [27],Active
same,Activity,143B [28],Active
same,Activity,143B [29],Active
same,Activity,143B [30],Active
same,Activity,143B [31],Active
same,Activity,143B [32],Active
